Results reported in patent US12116358B2, “Substituted indoles and methods of use thereof” (EPIZYME, INC., priority 2018, dated 2024).
Read-outs that look alike come from different tables or passages of the source.

How the values were obtained:
SETD2(1434-1711) = molecular target: T1, SETD2(1434-1711) (Homo sapiens, UniProt Q9BYW2); assay: SETD2 (1434-1711) assay; type: biochemical; details: read-out: SETD2 (1434-1711)
T1 construct: SETD2 (1434-1711) Assay; catalogue N/A
T1 sequence (Q9BYW2 1434-1711): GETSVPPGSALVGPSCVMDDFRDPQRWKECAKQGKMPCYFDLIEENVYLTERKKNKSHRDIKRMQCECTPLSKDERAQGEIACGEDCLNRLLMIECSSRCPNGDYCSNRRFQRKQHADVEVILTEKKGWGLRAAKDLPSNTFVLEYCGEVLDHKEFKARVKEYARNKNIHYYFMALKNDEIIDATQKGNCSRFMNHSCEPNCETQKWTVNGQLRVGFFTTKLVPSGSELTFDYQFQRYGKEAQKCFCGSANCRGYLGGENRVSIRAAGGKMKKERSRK

H3K36me3 in A549 cells = assay: In-Cell Western (ICW) assay of SETD2 inhibitors (A549 assay); type: cell-based, human; details: A549 cells, read-out: SETD2 A549
Description: In-Cell Western (ICW) Assay of SETD2 Inhibitors (A549 Assay)
Representative Compounds of the Disclosure were tested in the A549 assay according the following protocol.
1. Reagents and Consumables:
Prepare plates with compounds. Seed A549 cells to the plates with compounds, 4,000 cells/well, 50 μl/well. Put the plates at room temperature on a non-vibrating surface for 20 minutes before placing in the incubator. Incubate the plate at 37° C. incubator with CO2 for 3 days. Remove plate from incubator and bring to room temperature. Blot media out of the plate and add 50 μL of ice cold 100% methanol. Incubate 30 minutes at room temperature. Remove methanol by aspiration. Wash 3× with PBST. Add 50 μL of Blocking Buffer+0.1% Tween 20. Incubate 1 hour. Remove Blocking Buffer, wash 3× with PBST. Add 20 μL of H3K36me3 (1:1000 dilution). […] Incubate overnight at 4° C. Wash plate 5× with PBS-T. Add 20 μL of DRAQ5 (1:1000) and IRDye 800CW Goat anti-Rabbit IgG (1:500). Incubate for 1 hour in the dark. Wash plate 5× with PBS-T. Wash plate 3× with water. Dry by blotting on paper towel, then centrifuge plate upside down on a thin layer of paper towels for 1 minute at 1000 rpm to remove excess reagent. Leave plate uncovered for ˜10 minutes out of direct light before reading. Read on Licor instrument.
4. Licor Instrument Settings:
Preset: Plate; Resolution: 84 μm; Quality: low; Focus offset: 4.0; 700 channel intensity: 2; and 800 channel intensity: 3.

SMILES | IC50 (SETD2(1434-1711)) [nM] | IC50 (H3K36me3 in A549 cells; Homo sapiens) [nM] | IC50 (H3K36me3 in A549 cells) [nM]
Cc1ccc(F)c2cc(C(=O)Nc3cccc(CC(=O)N(C)C)c3)[nH]c12 [compound 256] | 200 | 600 | 
CC(=O)N1CCN(c2cccc(NC(=O)c3cc4c(F)ccc(C)c4[nH]3)c2F)CC1 [compound 52] | 70 |  | 100
Cc1ccc(F)c2cc(C(=O)NC3CCCC(N4CCN(C(=O)CO)C(C(F)(F)F)C4)C3)[nH]c12 (stereo not shown) [compound 1173] | 40 |  | 30
Cc1ccc(F)c2cc(C(=O)Nc3cccc(C45CCC(N(C)C)CC4C5)c3)[nH]c12 (stereo not shown) [compound 251] | 10 |  | 600
CNC(=O)CCCc1cccc(NC(=O)c2cc3c(F)ccc(C)c3[nH]2)c1 [compound 288] | 300 |  | 1000
Cc1ccc(F)c2cc(C(=O)NC3CCCC(N4CCC(N(C)C(=O)CO)C4)C3)[nH]c12 (stereo not shown) [compound 995] | 8 |  | 30
Cc1ccc(F)c2cc(C(=O)Nc3cccc(N4CCC(CO)(CO)CC4)c3)[nH]c12 [compound 103] | 30 |  | 200
Cc1ccc(F)c2cc(C(=O)Nc3cc(F)cc(C4CCN5C(=O)CC[C@@H]5C4)c3)[nH]c12 (stereo partly shown) [compound 114] | 60 | 200 | 
Cc1ccc(F)c2cc(C(=O)Nc3cccc(-c4ncon4)c3)[nH]c12 [compound 249] | 200 | 600 | 
Cc1ccc(F)c2cc(C(=O)N[C@@H]3CCC[C@H](N4CCC(N(C)C(=O)CO)C4)C3)[nH]c12 (stereo partly shown) [compound 934] | 10 | 100 | 
CC(=O)N1CCN(CC2CCCN(C(=O)c3cc4c(F)ccc(C)c4[nH]3)C2)CC1 (stereo not shown) [compound 877] | > 10000 | > 2000 | 
Cc1ccc(NC(=O)c2cc3cccc(C)c3[nH]2)cc1CN1CCOCC1 [compound 456] | 1400 | 6100 | 
Cc1ccc(F)c2cc(C(=O)Nc3cnn(C4CCN(C)CC4)c3)[nH]c12 [compound 569] | 14000 | > 25000 | 
Cc1ccc(F)c2cc(C(=O)NC3CCCC(N4CCN5C(=O)CN(C)C(=O)C5C4)C3)[nH]c12 (stereo not shown) [compound 1102] | 3900 |  | > 2000
Cc1ccc(F)c2cc(C(=O)NC3CCCC(N4CCn5c(cn(C)c5=O)C4)C3)[nH]c12 (stereo not shown) [compound 1179] | 500 |  | 800
Cc1cccc2cc(C(=O)NC3CCC(NC(=O)CCN)C3)[nH]c12 (stereo not shown) [compound 600] | > 50000 | > 25000 | 
Cc1ccc(F)c2cc(C(=O)Nc3cc(F)cc(N4CCC(N5CCN(C)C(=O)C5)C4)c3)[nH]c12 (stereo not shown) [compound 17] | 9 |  | 50
Cc1ccc(F)c2cc(C(=O)Nc3cc(Cl)cc(N4CCC(N(C)C)C4)c3)[nH]c12 (stereo not shown) [compound 120] | 6 | 300 | 
Cc1ccc(F)c2cc(C(=O)N[C@@H]3CCC[C@@H](N4CCC(N(C)C(=O)CN(C)C)C4)C3)[nH]c12 (stereo partly shown) [compound 909] | 4700 | > 2000 | 
COC(=O)CC(NC(=O)c1cc2cccc(C)c2[nH]1)c1ccccc1F (stereo not shown) [compound 556] | 9900 |  | > 25000
CC(=O)N1CCN(C[C@@H]2CCC[C@H](NC(=O)c3cc4c(F)ccc(C)c4[nH]3)C2)CC1 [compound 1077] | > 10000 | > 2000 | 
Cc1ccc(F)c2cc(C(=O)Nc3cccc(N4CCN(C5CC5)c5ccccc54)c3)[nH]c12 [compound 555] | 9200 |  | > 25000
Cc1ccc(F)c2cc(C(=O)NC3CCCC(N4CCC(N(C)C(=O)C(C)(C)O)C4)C3)[nH]c12 (stereo not shown) [compound 1052] | 20 |  | 50
CC(=O)N1CCN([C@H]2CCC[C@@H](NC(=O)c3cc4cccc(C)c4[nH]3)C2)CC1 [compound 856] | 200 |  | 300
Cc1ccc(F)c2cc(C(=O)Nc3cccc(N4CCC(O)(CN(C)C)CC4)c3)[nH]c12 [compound 254] | 60 | 600 | 
Cc1cc(C(=O)NC2CNC2)cnc1C(NC(=O)c1cc2cccc(C)c2[nH]1)C1CC1 (stereo not shown) [compound 535] | 600 |  | > 25000
